66 compounds from US7446195B2, “High affinity thiophene-based and furan-based kinase ligands” (Schering Corporation, priority 2005, dated 2008) can be followed below.

Bounds are passed on as bounds.

This assay concerns the target CDK-2 (Homo sapiens, UniProt P24941). In words: CDK-2 inhibition (Table 1; fluorescence polarization displacement assay). It counts as binding. Conditions: inhibitory effectiveness toward CDK-2. How it is done: The affinity of lead inhibitors binding to CDK-2 and CDK-2/cyclin A were determined by measuring a Ki value using a fluorescence polarization displacement assay. The deacetylated form of compound BMS-250595 was reacted with Alexa Fluor 647 to generate a compound (BMS-Alexa Fluor647) that bound to both proteins and provided a signal for fluorescence polarization displacement. Binding assays were performed in a 384 well Costar NBS coated plate. A total volume of […] contained concentrations of CDK-2 or CDK-2/cyclin A at […], respectively. The concentration of BMS-Alexa Fluor647 was 50 nM. Serial dilutions of compounds were added to 12 wells. The final buffer concentration was 10 mM Hepes, pH 7.5, 150 mM NaCl, and 1 mM DTT. Samples were incubated at room temperature for 15 minutes and then read in an Analyst HT instrument using an excitation and emission wavelength of 580 and 680 nm, respectively. The […] curve fitting tool described by Zhang et al., 2004 (Zhang R., Mayhood T., Lipari P., Wang Y., Durkin D., Syto R., Gesell J., McNemar C., and Windsor W., Analytical Biochemistry 331 (2004) 138-146)
A general note: Polarisation of emitted light reports the rotation of a fluorescent probe.
Turning to `COc1ccc(C(=O)Nc2ccc(C(=O)Nc3ccc(-n4cncn4)cc3)s2)c(C)c1` [Compound 2], the IC50 was no more than 1000 nM. Take `Cc1cc(N2CCOCC2)ccc1NC(=O)c1ccc(C(=O)Nc2ccc(-n3cncn3)cc2)s1` [Compound 3]: the half-maximal inhibitory concentration (IC50) was no more than 1000 nM.

`Cc1cc(OCCO)ccc1NC(=O)c1ccc(C(=O)Nc2ccc(-n3cncn3)cc2)s1` [Compound 4] returned a 50% inhibitory concentration (IC50) of no more than 1000 nM.

`COc1ccc(NC(=O)c2ccc(C(=O)Nc3ccc(-n4cncn4)c(F)c3)o2)c(C)c1` [Compound 5] gave an IC50 of no more than 1000 nM. With `Cc1cc(N2CCOCC2)ccc1NC(=O)c1ccc(C(=O)Nc2ccc(-n3cncn3)c(F)c2)s1` [Compound 6] the figure was no more than 1000 nM; with `COc1ccc(NC(=O)c2ccc(C(=O)Nc3ccc(-c4nc[nH]n4)c(F)c3)o2)c(C)c1` [Compound 7], no more than 1000 nM.

On to `COc1ccc(C(=O)Nc2ccc(C(=O)Nc3ccc(-c4nc[nH]n4)c(F)c3)s2)c(C)c1` [Compound 8], for which the IC50 is no more than 1000 nM. Take `Cc1cc(Cn2ccnc2)ccc1NC(=O)c1ccc(C(=O)Nc2ccc(-n3cncn3)cc2)s1` [Compound 9]: the IC50 is no more than 1000 nM. In the case of `Cc1cc(Cn2ccnc2)ccc1NC(=O)c1ccc(C(=O)Nc2ccc(-n3cncn3)c(F)c2)s1` [Compound 10], the IC50 was no more than 1000 nM. In turn, `Cc1cc(OCCN2CCOCC2)ccc1NC(=O)c1ccc(C(=O)Nc2ccc(-n3cncn3)cc2)s1` [Compound 11] gave an IC50 of no more than 1000 nM. With `Cc1cc(OCCN2CCN(C)CC2)ccc1NC(=O)c1ccc(C(=O)Nc2ccc(-n3cncn3)cc2)s1` [Compound 12] the figure was no more than 1000 nM. With `COc1ccc(NC(=O)c2ccc(C(=O)Nc3ccc(-n4cncn4)cc3)s2)c(C)c1` [Compound 13] the figure was no more than 1000 nM; with `COc1ccc(C(=O)Nc2ccc(C(=O)Nc3ccc(-n4cncn4)c(F)c3)s2)c(C)c1` [Compound 14], no more than 1000 nM. Next, `Cc1cc(N[C@H]2CCNC2)ccc1NC(=O)c1ccc(C(=O)Nc2ccc(-n3cncn3)c(F)c2)s1` [Compound 15]: no more than 1000 nM. In turn, `Cc1cc(CN2CCOCC2)ccc1NC(=O)c1ccc(C(=O)Nc2ccc(-n3cncn3)cc2)s1` [Compound 16] displayed an IC50 of no more than 1000 nM. On to `COc1ccc(NC(=O)c2ccc(C(=O)Nc3ccc(-n4cncn4)c(F)c3)s2)c(C)c1` [Compound 17], for which the IC50 is no more than 1000 nM. With `O=C(Nc1ccc(-n2cncn2)cc1)c1ccc(C(=O)NC2CCCCC2)o1` [Compound 18], the IC50 is no more than 1000 nM.

The compound `O=C(Nc1ccc(-n2cncn2)c(F)c1)c1ccc(C(=O)Nc2ccccc2Cl)s1` [Compound 19] came in with an IC50 of no more than 1000 nM. The compound `Cc1cc(CN2CCOCC2)ccc1NC(=O)c1ccc(C(=O)Nc2ccc(-n3cncn3)c(F)c2)s1` [Compound 20] displayed an IC50 of no more than 1000 nM. Next, `O=C(Nc1ccc(-n2cncn2)cc1)c1ccc(NC(=O)C2CCCCC2)s1` [Compound 21]: no more than 1000 nM; `COc1ccc(NC(=O)c2ccc(C(=O)Nc3ccc(-c4nc[nH]n4)c(F)c3)s2)c(C)c1` [Compound 22]: no more than 1000 nM; `Cc1cc(CN2CCN(C)CC2)ccc1NC(=O)c1ccc(C(=O)Nc2ccc(-n3cncn3)c(F)c2)s1` [Compound 23]: no more than 1000 nM. With `Cc1ccccc1NC(=O)c1ccc(C(=O)Nc2ccc(-n3cncn3)cc2)s1` [Compound 24] the figure was no more than 1000 nM; with `COc1ccc(NC(=O)c2ccc(C(=O)Nc3ccc(-c4nnc[nH]4)cc3)s2)c(C)c1` [Compound 25], no more than 1000 nM; with `COc1ccc(NC(=O)c2ccc(C(=O)Nc3ccc(-n4cncn4)cc3)o2)c(C)c1` [Compound 26], no more than 1000 nM.

For the compound `O=C(Nc1ccc(-n2cncn2)c(F)c1)c1ccc(C(=O)NC2CCCCC2)o1` [Compound 27], the IC50 was no more than 1000 nM. With `C[C@H](NC(=O)c1ccc(C(=O)Nc2ccc(-n3cncn3)c(F)c2)o1)C1CCCCC1` [Compound 28] the figure was no more than 1000 nM; with `Cc1cc(N2CCN(C)CC2)ccc1NC(=O)c1ccc(C(=O)Nc2ccc(-n3cncn3)cc2)s1` [Compound 29], no more than 1000 nM.

Compound `Cc1cc(N2CCNCC2)ccc1NC(=O)c1ccc(C(=O)Nc2ccc(-n3cncn3)cc2)s1` [Compound 30] showed an IC50 of no more than 1000 nM. With `Cc1ccccc1NC(=O)c1ccc(C(=O)Nc2ccc(-n3cncn3)cc2)o1` [Compound 31], the IC50 is no more than 1000 nM. In the case of `Cc1cc(CN2CCN(C)CC2)ccc1NC(=O)c1ccc(C(=O)Nc2ccc(-n3cncn3)cc2)s1` [Compound 32], the IC50 was no more than 1000 nM.

Consider `Cc1cc(O)ccc1NC(=O)c1ccc(C(=O)Nc2ccc(-n3cncn3)cc2)s1` [Compound 33], for which the IC50 is no more than 1000 nM. For `Cc1ccccc1C(=O)Nc1ccc(C(=O)Nc2ccc(-n3cncn3)cc2)s1` [Compound 34], the IC50 was no more than 1000 nM. Turning to `COc1ccc(NC(=O)c2ccc(C(=O)Nc3ccc(-n4cncn4)cc3)o2)cc1` [Compound 35], the IC50 is no more than 1000 nM. `Cc1cc(N(C)CCN(C)C)ccc1NC(=O)c1ccc(C(=O)Nc2ccc(-n3cncn3)cc2)s1` [Compound 36] yielded an IC50 of no more than 1000 nM. Next, `O=C(Nc1ccc(-n2cncn2)c(F)c1)c1ccc(C(=O)Nc2ccccc2F)s1` [Compound 37]: no more than 1000 nM; `Cc1cc(N[C@H]2CCNC2)ccc1NC(=O)c1ccc(C(=O)Nc2ccc(-n3cncn3)cc2)s1` [Compound 38]: no more than 1000 nM; `CN(C(=O)c1ccc(C(=O)Nc2ccc(-n3cncn3)cc2)s1)C1CCCCC1` [Compound 39]: no more than 1000 nM. Next, `O=C(Nc1ccc(C(=O)Nc2ccc(-n3cncn3)cc2)s1)c1ccccc1` [Compound 40]: no more than 1000 nM; `COc1ccc(NC(=O)c2ccc(C(=O)N3CCC(Oc4cnccn4)CC3)s2)c(C)c1` [Compound 41]: 1000 to 40000 nM; `COc1ccc(C(=O)Nc2ccc(C(=O)Nc3ccc(-n4cncn4)cc3)s2)cc1` [Compound 42]: 1000 to 40000 nM. With `C[C@@H](NC(=O)c1ccc(C(=O)Nc2ccc(-n3cncn3)c(F)c2)o1)C1CCCCC1` [Compound 43] the figure was 1000 to 40000 nM. In turn, `Cc1cc(NCCN(C)C)ccc1NC(=O)c1ccc(C(=O)Nc2ccc(-n3cncn3)cc2)s1` [Compound 44] yielded an IC50 of 1000 to 40000 nM. `O=C(Nc1ccccc1)c1ccc(C(=O)Nc2ccc(-n3cncn3)cc2)o1` [Compound 45]: the IC50 fell in the range of 1000 to 40000 nM. As for `O=C(Nc1ccc(-n2cncn2)c(F)c1)c1ccc(C(=O)Nc2ccccc2C(F)(F)F)s1` [Compound 46], the IC50 was in the range of 1000 to 40000 nM. Turning to `Cc1cc(CN(C)C)ccc1NC(=O)c1ccc(C(=O)Nc2ccc(-n3cncn3)cc2)s1` [Compound 47], the IC50 lay in the range of 1000 to 40000 nM. `Cc1cc(CN(C)C)ccc1NC(=O)c1ccc(C(=O)Nc2ccc(-n3cncn3)c(F)c2)s1` [Compound 48]: the IC50 lay within 1000 to 40000 nM.

The compound `O=C(Nc1ccc(-n2cncn2)c(F)c1)c1ccc(C(=O)N[C@H]2CC[C@H](O)CC2)o1` [Compound 49] showed a half-maximal inhibitory concentration (IC50) of 1000 to 40000 nM. With `COc1ccc(NC(=O)c2ccc(C(=O)N3CCC(c4ccncc4)C3)s2)c(C)c1` (stereo not drawn) [Compound 50] the figure was 1000 to 40000 nM; with `CNCc1ccc(NC(=O)c2ccc(C(=O)Nc3ccc(-n4cncn4)cc3)s2)c(C)c1` [Compound 51], 1000 to 40000 nM; with `O=C(NCCN1CCCC1)c1ccc(C(=O)Nc2ccc(-n3cncn3)cc2)s1` [Compound 52], 1000 to 40000 nM. Next, `O=C(Nc1ccc(Cl)cc1)c1ccc(C(=O)Nc2ccc(-n3cncn3)cc2)s1` [Compound 53]: 1000 to 40000 nM; `O=C(Nc1ccc(-n2cncn2)cc1)c1ccc(C(=O)Nc2cccc(Cl)c2)s1` [Compound 54]: 1000 to 40000 nM.

As for `Cc1ccsc1CNC(=O)c1ccc(C(=O)Nc2ccc(-n3cncn3)cc2)s1` [Compound 55], the IC50 is 1000 to 40000 nM. With `O=C(Nc1ccc(-n2cncn2)cc1)c1ccc(C(=O)N[C@H]2CCc3ccccc32)s1` [Compound 56] the figure was 1000 to 40000 nM; with `CC(=O)N1CCC(NC(=O)c2ccc(C(=O)Nc3ccc(-n4cncn4)cc3)s2)CC1` [Compound 57], 1000 to 40000 nM; with `O=C(Nc1ccc(-n2cncn2)cc1)c1ccc(C(=O)Nc2nc3ccccc3s2)s1` [Compound 58], 1000 to 40000 nM.

For the compound `COc1cccc(NC(=O)c2ccc(C(=O)Nc3ccc(-n4cncn4)cc3)s2)c1OC` [Compound 59], the IC50 fell in the range of 1000 to 40000 nM. With `O=C(Nc1ccc(-n2cncn2)cc1)c1ccc(C(=O)Nc2nc3c(s2)CCCC3)s1` [Compound 60] the figure was 1000 to 40000 nM. In turn, `COc1ccc(NC(=O)c2ccc(C(=O)Nc3ccc(-n4cncn4)cc3)s2)cc1Cl` [Compound 61] returned an IC50 of 1000 to 40000 nM. In turn, `COc1ccc(Cl)cc1NC(=O)c1ccc(C(=O)Nc2ccc(-n3cncn3)cc2)s1` [Compound 62] registered an IC50 of 1000 to 40000 nM. On to `O=C(NCc1ccccc1)c1ccc(C(=O)Nc2ccc(-n3cncn3)cc2)s1` [Compound 63], for which the IC50 lay in the range of 1000 to 40000 nM. With `Cn1nc(C2CC2)cc1NC(=O)c1ccc(C(=O)Nc2ccc(-n3cncn3)cc2)s1` [Compound 64] the figure was 1000 to 40000 nM; with `COc1ccc(NC(=O)c2ccc(C(=O)Nc3ccc(F)cc3-n3cncn3)s2)c(C)c1` [Compound 65], 1000 to 40000 nM. With `Cn1nc(-c2ccccc2)cc1NC(=O)c1ccc(C(=O)Nc2ccc(-n3cncn3)cc2)s1` [Compound 66] the figure was 1000 to 40000 nM; with `Cc1cc(NC(=O)c2ccc(C(=O)Nc3ccc(-n4cncn4)cc3)s2)n(C)n1` [Compound 67], 1000 to 40000 nM.

The term IC50 denotes the midpoint of a concentration-inhibition curve. Low values mean greater potency, high ones weaker potency.
